Measurements as given in the supplement of paper PMC13207355.
Structures can show the parent of a compound that is named as a salt.

Columns and labels:
Settings in all cases: exposure time: 72 h
E13 [1] = patient-derived glioblastoma stem cells of classical subtype; experiment: surviving fraction (nuclei count normalised to DMSO); higher = more cells surviving (less toxic)
E21 [2] = patient-derived glioblastoma stem cells of mesenchymal subtype; experiment: as above
E28 [3] = patient-derived glioblastoma stem cells of classical subtype; experiment: as above
E31 [4] = patient-derived glioblastoma stem cells of proneural subtype; experiment: as above
E34 [5] = patient-derived glioblastoma stem cells of proneural subtype; experiment: as above
E57 [6] = patient-derived glioblastoma stem cells of mesenchymal subtype; experiment: as above
FT3469 [7] = normal neural stem cell line; experiment: as above
E13 [8] = experiment: phenotypic distance (Euclidean, principal components) from DMSO controls (arbitrary units); higher = stronger morphological change
E21 [9] = experiment: as above
E28 [10] = experiment: as above
E31 [11] = experiment: as above
E34 [12] = experiment: as above
E57 [13] = experiment: as above
FT3469 [14] = experiment: as above
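For phenotypic distance (Euclidean, principal components) from DMSO controls in this document: cell Painting imaging in 384-well plates, CellProfiler features reduced to at least 20 principal components, Euclidean distance versus same-plate DMSO vehicle wells (0.1% v/v), median over six images per well.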
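For surviving fraction (nuclei count normalised to DMSO) in this document: nuclei counted by high-content imaging of Hoechst-stained cells in laminin-coated 384-well plates, relative to 0.1% DMSO vehicle wells, with staurosporine as cell-death control.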

CCCCCCC[N+](CC)(CC)CCCCc1ccc(Cl)cc1 [Clofilium tosylate]
Settings	phenotypic distance	surviving fraction
E13 [1], 4.1 nM	–	1.17
E13 [1], 12.3 nM	–	1.06
E13 [1], 37 nM	–	0.817
E13 [1], 111.1 nM	–	0.945
E13 [1], 333.3 nM	–	0.896
E13 [1], 1000 nM	–	0.937
E13 [1], 3000 nM	–	0.609
E13 [8], 4.1 nM	0.802	–
E13 [8], 12.3 nM	1.25	–
E13 [8], 37 nM	0.557	–
E13 [8], 111.1 nM	0.985	–
E13 [8], 333.3 nM	0.488	–
E13 [8], 1000 nM	0.667	–
E13 [8], 3000 nM	1.83	–
E21 [2], 4.1 nM	–	1
E21 [2], 12.3 nM	–	1.11
E21 [2], 37 nM	–	1.1
E21 [2], 111.1 nM	–	1
E21 [2], 333.3 nM	–	0.976
E21 [2], 1000 nM	–	1.12
E21 [2], 3000 nM	–	0.609
E21 [9], 4.1 nM	0.676	–
E21 [9], 12.3 nM	1	–
E21 [9], 37 nM	1.04	–
E21 [9], 111.1 nM	1.16	–
E21 [9], 333.3 nM	1.29	–
E21 [9], 1000 nM	1.68	–
E21 [9], 3000 nM	3.13	–
E28 [3], 4.1 nM	–	0.984
E28 [3], 12.3 nM	–	1.28
E28 [3], 37 nM	–	0.96
E28 [3], 111.1 nM	–	1.18
E28 [3], 333.3 nM	–	1.16
E28 [3], 1000 nM	–	1.05
E28 [3], 3000 nM	–	0.485
E28 [10], 4.1 nM	0.664	–
E28 [10], 12.3 nM	1.16	–
E28 [10], 37 nM	0.464	–
E28 [10], 111.1 nM	0.925	–
E28 [10], 333.3 nM	0.998	–
E28 [10], 1000 nM	1.17	–
E28 [10], 3000 nM	1.84	–
E31 [4], 4.1 nM	–	0.763
E31 [4], 12.3 nM	–	1.03
E31 [4], 37 nM	–	1.04
E31 [4], 111.1 nM	–	0.913
E31 [4], 333.3 nM	–	1.01
E31 [4], 1000 nM	–	0.95
E31 [4], 3000 nM	–	0.452
E31 [11], 4.1 nM	0.758	–
E31 [11], 12.3 nM	0.742	–
E31 [11], 37 nM	0.443	–
E31 [11], 111.1 nM	0.89	–
E31 [11], 333.3 nM	0.62	–
E31 [11], 1000 nM	1.43	–
E31 [11], 3000 nM	2.44	–
E34 [5], 4.1 nM	–	1.09
E34 [5], 12.3 nM	–	1.07
E34 [5], 37 nM	–	0.961
E34 [5], 111.1 nM	–	0.954
E34 [5], 333.3 nM	–	0.998
E34 [5], 1000 nM	–	1.02
E34 [5], 3000 nM	–	0.813
E34 [12], 4.1 nM	1	–
E34 [12], 12.3 nM	1.05	–
E34 [12], 37 nM	0.94	–
E34 [12], 111.1 nM	1.17	–
E34 [12], 333.3 nM	1.13	–
E34 [12], 1000 nM	1.33	–
E34 [12], 3000 nM	1.86	–
E57 [6], 4.1 nM	–	1.1
E57 [6], 12.3 nM	–	0.992
E57 [6], 37 nM	–	1.14
E57 [6], 111.1 nM	–	0.977
E57 [6], 333.3 nM	–	1.02
E57 [6], 1000 nM	–	0.959
E57 [6], 3000 nM	–	0.866
E57 [13], 4.1 nM	0.657	–
E57 [13], 12.3 nM	0.645	–
E57 [13], 37 nM	0.931	–
E57 [13], 111.1 nM	0.93	–
E57 [13], 333.3 nM	0.68	–
E57 [13], 1000 nM	0.764	–
E57 [13], 3000 nM	1.73	–
FT3469 [7], 4.1 nM	–	1.12
FT3469 [7], 12.3 nM	–	1.26
FT3469 [7], 37 nM	–	0.944
FT3469 [7], 111.1 nM	–	1.13
FT3469 [7], 333.3 nM	–	1.13
FT3469 [7], 1000 nM	–	1.07
FT3469 [7], 3000 nM	–	0.838
FT3469 [14], 4.1 nM	0.575	–
FT3469 [14], 12.3 nM	1.1	–
FT3469 [14], 37 nM	0.53	–
FT3469 [14], 111.1 nM	1.01	–
FT3469 [14], 333.3 nM	0.917	–
FT3469 [14], 1000 nM	1.08	–
FT3469 [14], 3000 nM	1.3	–

COc1cc2c(c(OC)c1OC)-c1ccc(OC)c(=O)cc1[C@@H](NC(C)=O)CC2 [Colchicine]
Settings	phenotypic distance	surviving fraction
E13 [1], 4.1 nM	–	0.247
E13 [1], 12.3 nM	–	0.187
E13 [1], 37 nM	–	0.165
E13 [1], 111.1 nM	–	0.14
E13 [1], 333.3 nM	–	0.151
E13 [1], 1000 nM	–	0.152
E13 [1], 3000 nM	–	0.178
E13 [8], 4.1 nM	5.49	–
E13 [8], 12.3 nM	5.12	–
E13 [8], 37 nM	6.59	–
E13 [8], 111.1 nM	7.17	–
E13 [8], 333.3 nM	8.24	–
E13 [8], 1000 nM	7.42	–
E13 [8], 3000 nM	7.88	–
E21 [2], 4.1 nM	–	0.171
E21 [2], 12.3 nM	–	0.125
E21 [2], 37 nM	–	0.133
E21 [2], 111.1 nM	–	0.137
E21 [2], 333.3 nM	–	0.136
E21 [2], 1000 nM	–	0.135
E21 [2], 3000 nM	–	0.139
E21 [9], 4.1 nM	5.8	–
E21 [9], 12.3 nM	5.88	–
E21 [9], 37 nM	5.7	–
E21 [9], 111.1 nM	5.45	–
E21 [9], 333.3 nM	5.2	–
E21 [9], 1000 nM	5.35	–
E21 [9], 3000 nM	4.96	–
E28 [3], 4.1 nM	–	0.546
E28 [3], 12.3 nM	–	0.244
E28 [3], 37 nM	–	0.335
E28 [3], 111.1 nM	–	0.295
E28 [3], 333.3 nM	–	0.291
E28 [3], 1000 nM	–	0.211
E28 [3], 3000 nM	–	0.207
E28 [10], 4.1 nM	2.89	–
E28 [10], 12.3 nM	3.81	–
E28 [10], 37 nM	4.44	–
E28 [10], 111.1 nM	4.55	–
E28 [10], 333.3 nM	5.48	–
E28 [10], 1000 nM	4.51	–
E28 [10], 3000 nM	5.17	–
E31 [4], 4.1 nM	–	0.131
E31 [4], 12.3 nM	–	0.0944
E31 [4], 37 nM	–	0.0551
E31 [4], 111.1 nM	–	0.0362
E31 [4], 333.3 nM	–	0.0614
E31 [4], 1000 nM	–	0.0519
E31 [4], 3000 nM	–	0.0425
E31 [11], 4.1 nM	4.44	–
E31 [11], 12.3 nM	6.48	–
E31 [11], 37 nM	9.95	–
E31 [11], 111.1 nM	12.2	–
E31 [11], 333.3 nM	11.7	–
E31 [11], 1000 nM	10.4	–
E31 [11], 3000 nM	12.5	–
E34 [5], 4.1 nM	–	0.406
E34 [5], 12.3 nM	–	0.368
E34 [5], 37 nM	–	0.389
E34 [5], 111.1 nM	–	0.284
E34 [5], 333.3 nM	–	0.318
E34 [5], 1000 nM	–	0.245
E34 [5], 3000 nM	–	0.267
E34 [12], 4.1 nM	3.32	–
E34 [12], 12.3 nM	7.33	–
E34 [12], 37 nM	9.15	–
E34 [12], 111.1 nM	9.46	–
E34 [12], 333.3 nM	7.78	–
E34 [12], 1000 nM	7.61	–
E34 [12], 3000 nM	10.5	–
E57 [6], 4.1 nM	–	0.21
E57 [6], 12.3 nM	–	0.0932
E57 [6], 37 nM	–	0.105
E57 [6], 111.1 nM	–	0.119
E57 [6], 333.3 nM	–	0.0902
E57 [6], 1000 nM	–	0.0976
E57 [6], 3000 nM	–	0.0829
E57 [13], 4.1 nM	4.26	–
E57 [13], 12.3 nM	4.49	–
E57 [13], 37 nM	4.46	–
E57 [13], 111.1 nM	4.55	–
E57 [13], 333.3 nM	4.46	–
E57 [13], 1000 nM	4.61	–
E57 [13], 3000 nM	5.19	–
FT3469 [7], 4.1 nM	–	0.487
FT3469 [7], 12.3 nM	–	0.468
FT3469 [7], 37 nM	–	0.367
FT3469 [7], 111.1 nM	–	0.301
FT3469 [7], 333.3 nM	–	0.263
FT3469 [7], 1000 nM	–	0.335
FT3469 [7], 3000 nM	–	0.229
FT3469 [14], 4.1 nM	3.51	–
FT3469 [14], 12.3 nM	4.18	–
FT3469 [14], 37 nM	5.37	–
FT3469 [14], 111.1 nM	5.29	–
FT3469 [14], 333.3 nM	4.34	–
FT3469 [14], 1000 nM	5.12	–
FT3469 [14], 3000 nM	4.51	–
